Experimental data as given in US12448369B2 (Edgewise Therapeutics, Inc., priority 2023, dated 2025).
Marks after values point to notes of the source that are not given here.

Tests used:
[1] = tested on: Rabbit Psoas myofibrils (skeletal myosin ATPase); experiment: Myofibril ATPase assay, rabbit psoas (skeletal) myofibrils; assay type: biochemical
Protocol: (§1) Example 1. Myofibril ATPase Assay
(§2) Myofibril ATPase assays are known in the art to be useful in evaluating small molecules for the treatment of HCM and other cardiac indications. Myosin ATPase activity is assessed by using a coupled reaction system, in which ADP generated by the myosin ATPase function is coupled to the disappearance of NADH through the pyruvate kinase/lactate dehydrogenase (PK-LDH) system. ATPase activity produces ADP, which is used as a substrate for PK to produce pyruvate and regenerate ATP. The pyruvate is then used as a substrate by LDH to oxidize NADH to NAD+. The rate of the reaction is monitored through the time-dependent disappearance of NADH using absorbance at 340 nm, which, when the couple system is in stoichiometric excess, is directly correlated to the ATPase activity of the myosin. Inhibition of ATPase activity by the assayed compounds is indicated by a reduced rate of NADH loss, relative to vehicle-treated controls, over the experimental time window. Activation of ATPase activity by the assayed compounds is indicated by an increased rate of NADH loss, relative to vehicle-treated controls, over the experimental time window. Rabbit Psoas, Porcine atria, and Porcine ventricle are the primary sources of myofibril material.
(§3) Materials: The following stock solutions and reagents were used in the Myofibril ATPase Assay:
(§4) Stock Solutions of pCa buffer. Combine PIPES, CaCl2, and EGTA solutions with water. Adjust pH to 7.0 and bring final volume to 100 mL.
(§5) Buffer A & Buffer B. Prepare buffers A and B according to the table below.
(§6) Myofibril ATPase Assay Procedure: BSA, ATP, NADH, PEP, and DTT solutions were thawed at room temperature, then transferred to ice. Pellet-frozen myofibrils were transferred with approximately twice the required volume into a sufficiently large tube and capped. Myofibrils were thawed by rolling in a water bath for approximately 15 min at room temperature and cooled on ice. Buffers A and B were prepared by adjusting volumes as necessary for required number of wells and stored on ice. 0.5 μL of the compounds to be assayed were added into wells. 25 μL of Buffer A was dispensed into the wells, followed by 25 μL of Buffer B. The wells were measured for absorbance at 340 nm, using a kinetic protocol in which the wells are read every 1.5-2 min for 75 min. Assay data analysis was performed using a python script that filtered the raw data to retain those points falling between a starting and ending time and between a maximum and minimum absorbance, then used the filtered time-domain 340 nm absorbance data in each well to calculate a slope via linear regression analysis in units of mAU/min. Compound slopes were normalized between 100% and 0% activity, where 100% represented the slope of wells containing only compound vehicle, and fit to a 4-parameter logistic model. In addition to the fit parameters, the EC25% values were calculated, relative to the 100% normalized value. Additionally, the Y125 values were calculated for compounds that increased myosin ATP-ase activity. Fit parameters, calculated effective concentrations, filtered raw data, and calculated slopes were exported, in addition to compound-specific graphs of normalized ATPase activity versus concentration in μM. Each value reported in Table 5, Table 6, and Table 7 is either a Y75 value or a Y125 value. Values without a double cross sign, ‡, are Y75 values, which reflect the concentration required to reduce myosin ATP-ase activity by 25% (e.g., Y-axis activity value is 75% of initial value), relative to myosin ATP-ase activity in the absence of exogenous compound.
Skeletal Myofibril Isolation:
(§7) Myofibrils from various animals and tissue types were acquired from a variety of sources: rabbit psoas muscle was purchased from Pel-Freez Biologicals (Rogers, AR) and porcine cardiac muscle was purchased from Exemplar Genetics. All myofibrils were prepared using a method based upon those described in Herrmann et al. (1993) and summarized here. […]

[2] = tested on: Porcine atria myofibrils (atrial myosin ATPase); experiment: Myofibril ATPase assay, porcine atria myofibrils; assay type: biochemical
Protocol: as §1, §2, §3, §4, §5, §6, §7

[3] = molecular target: T1, Porcine ventricle myofibrils (ventricular myosin ATPase) (Sus scrofa, UniProt P79293); experiment: Myofibril ATPase assay, porcine ventricle myofibrils; assay type: biochemical, porcine (Yucatan minipigs)
T1 construct: Myofibrils from porcine cardiac muscle was isolated from the left ventricle of Yucatan minipigs; tissue Exemplar Genetics; host or cells: left ventricle of Yucatan minipigs, myofibrils prepared in house
Protocol: as §1, §2, §3, §4, §5, §6
Cardiac Myofibril Isolation:
Myofibrils from porcine cardiac muscle was isolated from the left ventricle of Yucatan minipigs. Myofibrils were prepared using a method based upon those described in Herrmann et al. (1993) and summarized here. […]

[4] = Y75 value (no ‡ mark), rabbit psoas myofibrils
[5] = Y75 value (no ‡ mark), porcine atria myofibrils
[6] = Y75 value (no ‡ mark), porcine ventricle myofibrils
[7] = ‡ Y125 value, not a Y75 value (125% activity relative to no compound), rabbit psoas myofibrils
[8] = ‡ Y125 value, not a Y75 value (125% activity relative to no compound), porcine ventricle myofibrils
[9] = porcine ventricle myofibrils, Y75 value

T1 sequence (P79293 whole entry): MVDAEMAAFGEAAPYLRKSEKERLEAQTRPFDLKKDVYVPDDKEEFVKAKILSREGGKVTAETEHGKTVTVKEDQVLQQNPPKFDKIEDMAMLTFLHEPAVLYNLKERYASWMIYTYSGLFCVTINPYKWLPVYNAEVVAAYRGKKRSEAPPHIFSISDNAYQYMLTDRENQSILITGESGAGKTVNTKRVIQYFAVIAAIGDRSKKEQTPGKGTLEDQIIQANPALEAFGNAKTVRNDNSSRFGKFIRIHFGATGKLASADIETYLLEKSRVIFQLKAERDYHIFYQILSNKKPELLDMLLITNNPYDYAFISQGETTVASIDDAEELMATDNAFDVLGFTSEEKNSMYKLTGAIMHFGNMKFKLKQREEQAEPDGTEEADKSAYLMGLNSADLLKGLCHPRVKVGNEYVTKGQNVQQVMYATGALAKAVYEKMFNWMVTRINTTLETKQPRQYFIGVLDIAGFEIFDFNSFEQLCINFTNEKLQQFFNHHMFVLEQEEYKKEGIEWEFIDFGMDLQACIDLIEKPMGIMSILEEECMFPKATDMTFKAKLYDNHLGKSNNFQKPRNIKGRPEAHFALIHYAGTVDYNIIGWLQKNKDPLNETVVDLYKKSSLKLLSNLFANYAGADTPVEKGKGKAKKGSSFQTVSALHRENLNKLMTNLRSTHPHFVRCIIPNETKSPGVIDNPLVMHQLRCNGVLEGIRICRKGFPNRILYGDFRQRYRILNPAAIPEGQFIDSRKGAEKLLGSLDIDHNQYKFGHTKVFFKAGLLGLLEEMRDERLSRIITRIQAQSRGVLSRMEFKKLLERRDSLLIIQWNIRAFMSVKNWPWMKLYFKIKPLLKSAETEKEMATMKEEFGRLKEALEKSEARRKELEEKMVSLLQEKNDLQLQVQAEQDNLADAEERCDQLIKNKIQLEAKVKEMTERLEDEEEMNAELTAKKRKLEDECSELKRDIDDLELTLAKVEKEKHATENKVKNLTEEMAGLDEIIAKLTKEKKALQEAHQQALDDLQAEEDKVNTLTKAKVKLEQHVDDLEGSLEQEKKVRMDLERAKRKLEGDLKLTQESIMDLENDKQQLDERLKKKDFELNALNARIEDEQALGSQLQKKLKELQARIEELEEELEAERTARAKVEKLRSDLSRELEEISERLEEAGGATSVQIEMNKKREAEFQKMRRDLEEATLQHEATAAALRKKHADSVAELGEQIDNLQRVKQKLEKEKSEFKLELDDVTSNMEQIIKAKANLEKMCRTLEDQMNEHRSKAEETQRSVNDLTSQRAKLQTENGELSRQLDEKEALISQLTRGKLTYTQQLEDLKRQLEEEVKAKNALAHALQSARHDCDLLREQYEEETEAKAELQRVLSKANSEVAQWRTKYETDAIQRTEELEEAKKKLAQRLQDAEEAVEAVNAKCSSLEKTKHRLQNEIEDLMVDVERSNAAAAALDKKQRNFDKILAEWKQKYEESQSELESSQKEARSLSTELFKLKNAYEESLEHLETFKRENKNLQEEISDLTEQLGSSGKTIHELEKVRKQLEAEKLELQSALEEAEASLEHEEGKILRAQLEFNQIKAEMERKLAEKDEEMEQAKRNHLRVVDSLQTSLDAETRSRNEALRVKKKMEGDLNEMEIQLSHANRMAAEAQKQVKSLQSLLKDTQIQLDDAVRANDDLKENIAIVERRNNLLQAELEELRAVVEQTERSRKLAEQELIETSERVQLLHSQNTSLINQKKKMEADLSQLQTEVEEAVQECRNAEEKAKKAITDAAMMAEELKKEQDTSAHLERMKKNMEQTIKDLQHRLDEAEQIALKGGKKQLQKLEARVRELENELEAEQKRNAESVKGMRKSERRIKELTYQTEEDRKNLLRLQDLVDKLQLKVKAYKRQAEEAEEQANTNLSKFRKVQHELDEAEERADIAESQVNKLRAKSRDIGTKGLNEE

| Compound | Skeletal EC25 [1, 4] | Atrial EC25 [2, 5] | Ventricular EC25 [3, 6] | other results |
| --- | --- | --- | --- | --- |
| C[C@@H](NC(=O)C(F)(F)c1cc2c(C#N)c(F)ccc2[nH]c1=O)c1ncc(C#N)cc1F (single isomer, unassigned) [Compound 2529] | 0.24 µM | 0.24 µM | 0.35 µM | – |
| C[C@H](NC(=O)C(F)(F)c1cc2c(C#N)c(F)ccc2[nH]c1=O)c1ncc(C#N)cc1F (single isomer, unassigned) [Compound 2530] | 0.08 µM | 0.20 µM | 0.21 µM | – |
| CC(NC(=O)C1(c2cc3c(F)c(F)ccc3[nH]c2=O)CC1)c1cccc(C#N)n1 (single isomer, unassigned) [Compound 2569] | 100.00 µM | 4.84 µM | 100.00 µM | – |
| CC(NC(=O)C1(c2cc3c(F)c(F)ccc3[nH]c2=O)CC1)c1cccc(C#N)n1 (single isomer, unassigned) [Compound 2570] | – | – | – | Skeletal EC25 [1, 7]: 26.03‡ μM; Atrial EC25 ([2]; ‡ Y125 value, not a Y75 value (125% activity relative to no compound), porcine atria myofibrils): 100.00‡ μM; Ventricular EC25 [3, 8]: 63.85‡ μM |
| Cc1c(C2(C(=O)NC(C)c3cccc(C#N)n3)CC2)c(=O)[nH]c2ccc(F)cc12 (single isomer, unassigned) [Compound 2580] | – | 4.52 µM | 100.00 µM | Skeletal EC25 [1, 7]: 17.17‡ μM |
| Cc1c(C(F)(F)C(=O)NC(C)c2cccc(C#N)n2)c(=O)[nH]c2ccc(F)c(F)c12 (single isomer, unassigned) [Compound 2587] | 5.65 µM | 5.60 µM | 100.00 µM | – |
| Cc1c(C(F)(F)C(=O)N[C@@H](C)c2nc(C#N)cs2)c(=O)[nH]c2ccc(F)cc12 (single isomer, unassigned) [Compound 4010] | – | – | – | Skeletal EC25 ([1]; Y75 value: concentration required to reduce myosin ATP-ase activity by 25%, Rabbit Psoas Prep pCa 25 GEOM_MEAN): 2.38 µM; Atrial EC25 ([2]; Y75 value: concentration required to reduce myosin ATP-ase activity by 25%, Porcine Atria Prep pCa 25 GEOM_MEAN): 0.74 µM; Ventricular EC25 ([3]; Y75 value: concentration required to reduce myosin ATP-ase activity by 25%, Porcine Ventricle Prep pCa 25 GEOM_MEAN): 19.76 µM |
| C[C@H](NC(=O)Cc1cc2cc(F)c(F)cc2[nH]c1=O)c1ncc(C#N)cc1F (single isomer, unassigned) [compound 4] | 0.15 µM | 4.38 µM | 0.96 µM | – |
| Cc1c(C(F)(F)C(=O)N[C@H]2COc3cc(C#N)cc(F)c32)c(=O)[nH]c2ccc(F)cc12 (single isomer, unassigned) [compound 2554] | – | 0.09 µM | 0.20 µM | – |
| C[C@H](NC(=O)[C@H](C)c1cc2c(C3CC3)nccc2[nH]c1=O)c1ccc(F)cc1F (single isomer, unassigned) [compound 3506] | – | – | – | Skeletal EC25 (Y125 value, marked ‡) ([1]; rabbit psoas myofibrils, Y125 value, not a Y75 value): 108.50‡ μM; Ventricular EC25 [3, 9]: 100.00 µM |
| Cc1cc(F)cnc1[C@@H](C)NC(=O)C(F)(F)c1c(C)c2cc(F)ccc2[nH]c1=O (single isomer, unassigned) [compound 4807] | 0.82 µM | – | 1.39 µM | – |
| C[C@H](NC(=O)Cc1cc2c(O)nccc2[nH]c1=O)c1ccc(F)cc1F [compound 3013] | – | – | – | Skeletal EC25 ([1]; rabbit psoas myofibrils, Y75 value): 100.00 µM; Ventricular EC25 [3, 9]: 100.00 µM |

More lines, main results first:

| Skeletal EC25 [1, 4] | Atrial EC25 [2, 5] | Ventricular EC25 [3, 6] | Compound | other results |
| --- | --- | --- | --- | --- |
| 100.00 µM | 0.67 µM | 100.00 µM | Cc1c([C@@H](C)C(=O)N[C@H](C)c2ncc(C#N)cc2F)c(=O)[nH]c2ccc(F)c(F)c12 (relative stereo) [compound 2600, Rel-(2R*)-N-[(1R)-1-(5-cyano-3-fluoropyridin-2-yl)ethyl]-2-(5,6-difluoro-4-methyl-2-oxo-1H-quinolin-3-yl) propanamide] | – |
| 0.02 µM | 0.05 µM | 0.08 µM | Cc1c([C@@H](C)C(=O)N[C@@H](C)c2ncc(C#N)cc2F)c(=O)[nH]c2ccc(F)c(F)c12 (relative stereo) [compound 2602, rel-(2R*)-N-[(1S)-1-(5-cyano-3-fluoropyridin-2-yl)ethyl]-2-(5,6-difluoro-4-methyl-2-oxo-1H-quinolin-3-yl) propanamide] | – |
| 0.54 µM | 0.12 µM | 0.75 µM | C[C@H](NC(=O)[C@H](C)c1cc2c(F)c(F)ccc2[nH]c1=O)c1ncc(C#N)cc1F (relative stereo) [compound 2604, (2R*)-N-[(1S)-1-(5-cyano-3-fluoropyridin-2-yl)ethyl]-2-(5,6-difluoro-2-oxo-1H-quinolin-3-yl)propanamide] | – |
| 0.28 µM | 0.76 µM | 2.64 µM | Cc1c(F)ccc2[nH]c(=O)c(C(F)(F)C(=O)N[C@H](C)c3ncc(C#N)cn3)c(C#N)c12 (single isomer, unassigned) [Compound 2511] | – |
| 0.34 µM | 0.43 µM | 1.62 µM | Cc1c(C(F)(F)C(=O)N[C@H](C)c2ncc(C#N)cn2)c(=O)[nH]c2ccc(F)c(C(F)(F)F)c12 (single isomer, unassigned) [Compound 2513] | – |
| 0.16 µM | 0.60 µM | 1.53 µM | Cc1c(C(F)(F)C(=O)N[C@@H](C)c2ncc(C#N)cn2)c(=O)[nH]c2ccc(F)c(C(F)(F)F)c12 (single isomer, unassigned) [Compound 2514] | – |
| 100.00 µM | 100.00 µM | 100.00 µM | CC(NC(=O)C(F)(F)c1cc2cc(F)ccc2[nH]c1=O)c1cc(C#N)ccn1 (single isomer, unassigned) [Compound 2573] | – |
| – | 100.00 µM | – | Cc1c(C(F)(F)C(=O)NC(C)c2cccc(C#N)n2)c(=O)[nH]c2ccc(F)c(F)c12 (single isomer, unassigned) [Compound 2588] | Skeletal EC25 [1, 7]: 19.03‡ μM; Ventricular EC25 [3, 8]: 67.27‡ μM |
| 0.11 µM | 0.07 µM | 0.14 µM | Cc1nc(C#N)cnc1[C@@H](C)NC(=O)Cc1c(C)c2c(C#N)c(F)ccc2[nH]c1=O (single isomer, unassigned) [compound 1] | – |
| 0.02 µM | 0.09 µM | 0.08 µM | Cc1nc(C#N)cnc1[C@H](C)NC(=O)Cc1c(C)c2c(C#N)c(F)ccc2[nH]c1=O (single isomer, unassigned) [compound 2] | – |
| 2.33 µM | 3.40 µM | 0.31 µM | C[C@@H](NC(=O)Cc1cc2cc(F)c(F)cc2[nH]c1=O)c1ncc(C#N)cc1F (single isomer, unassigned) [compound 3] | – |
| – | 0.05 µM | 0.10 µM | Cc1c(Cl)ccc2[nH]c(=O)c(CC(=O)N[C@@H](C)c3ncc(C#N)cc3F)c(C)c12 (single isomer, unassigned) [compound 2046] | – |
| 100.00 µM | – | 100.00 µM | Cc1cc(F)cnc1[C@H](C)NC(=O)C(F)(F)c1c(C)c2cc(F)ccc2[nH]c1=O (single isomer, unassigned) [compound 4808] | – |
